Measurements taken from patent US6664224B2, “Quaternary ammonium salt and process for the preparation thereof” (priority 2000, dated 2003).
Where two headings read alike, the source gives them in different places.

Legend:
[1] = tested on: Bacillus substilis ATCC 6633; assay: Minimum bactericidal concentration (MBC) against bacteria; assay type: cell-based, Bacillus subtilis; details: culture 37° C. 24 hours
Procedure: (§1) A bacteria solution in the initial stage of logarithmic productive phase which had been adjusted with a nutrient broth according to an ordinary sterilized water dilution method such that the concentration of bacterial suspension reached 10^6 cell/ml was brought into contact with chemical solutions having concentrations which vary stepwise at a temperature of 30° C. for 30 minutes, and then transplanted to a nutrient broth where it was then allowed to stand at a temperature of 37° C. for 24 hours for culture. The nutrient broth was then examined to see if the proliferation of bacteria occurred. Thus, MBC was determined.
(§2) Five kinds of gram-negative bacteria and four kinds of gram-positive bacteria were used as sample bacteria.
(§3) BAMP-6 (Example 12), BAMD-6,8 (Example 13), BAMT-6 (Example 17) and benzalkonium chloride (Comparative Example 1) were determined for MBC value against 5 kinds of gram-negative bacteria and 4 kinds of gram-positive bacteria in the same manner as in Test Example 1.

Proteus rettgeri NIT 96 = assay: as above; assay type: cell-based; details: culture 37° C. 24 hours
Procedure: as §1, §2, §3

[2] = tested on: Escherichia coli K12 W 3110; assay: as above; assay type: cell-based; details: culture 37° C. 24 hours
Procedure: as §1, §2, §3

[3] = tested on: Staphylococcus aureus IFO 12732; assay: as above; assay type: cell-based; details: culture 37° C. 24 hours
Procedure: as §1, §2, §3

[4] = tested on: Bacillus subtilis IFO 3134; assay: as above; assay type: cell-based; details: culture 37° C. 24 hours
Procedure: as §1, §2, §3

[5] = tested on: Pseudomonas aeruginosa ATCC 27583; assay: as above; assay type: cell-based; details: culture 37° C. 24 hours
Procedure: as §1, §2, §3

Bacillus cereus IFO 3001 = assay: as above; assay type: cell-based; details: culture 37° C. 24 hours
Procedure: as §1, §2, §3

[6] = tested on: Escherichia coli K12 OUT 8401; assay: as above; assay type: cell-based; details: culture 37° C. 24 hours
Procedure: as §1, §2, §3

[7] = tested on: Klebsiella pneumoniae ATCC 13883; assay: as above; assay type: cell-based; details: culture 37° C. 24 hours
Procedure: as §1, §2, §3

Erythrocyte = assay: Minimum hemolytic activity concentration against erythrocyte; assay type: cell-based; details: human erythrocyte, 37° C. 1 hour, O.D.540, 50% hemolysis
Procedure: Human blood was collected. The sample blood was then mixed with the equal amount of alsebar solution (glucose: 2.05 g; NaCl: 0.42 g; sodium citrate: 0.8 g; citric acid: 0.55 g; pH: 6.1). The mixture was then stored at a temperature of 4° C. Shortly before used for experiment, the alsebar stored blood was subjected to centrifugal separation. Thus, the supernatant liquid and the leukocyte layer on the erythrocyte were removed. To the erythrocyte was then added PBS in an amount of […] that of the erythrocyte to obtain a 50% erythrocyte. 10 μl of the 50% erythrocyte was then mixed with 990 μl of each of chemicals which had been diluted with PBS in amounts varying stepwise. The erythrocyte was acted upon by the chemical at a temperature of 37° C. for 1 hour. The mixture was then subjected to centrifugal separation. The supernatant liquid was collected for the measurement of the optical density at 540 nm (O.D.540). Separately, the foregoing procedure was followed except that no chemicals were used to prepare a 0% hemolytic control. The foregoing procedure was followed except that Milliq water was used instead of PBS to prepare a 100% hemolytic control. For the minimum hemolytic activity concentration of chemical, the minimum concentration at which the hemolytic concentration is […] was determined.

[8] = tested on: Escherichia coli K12 W 3110; assay: Minimum development inhibiting concentration (MIC) against bacteria, broth dilution method; assay type: cell-based; details: for MIC Escherichia coli K12 W 3110: 37° C. 24 hours
Procedure: A bacteria solution in stationary state which had been adjusted with a nutrient broth according to an ordinary broth dilution method such that the concentration of bacterial suspension reached 10^6 cell/ml was added to chemical solutions having concentrations which vary stepwise where it was then allowed to stand at a temperature of 37° C. for 24 hours for culture. The bacteria solution was then examined to see if the proliferation of bacteria occurred. Thus, MIC was determined.
Escherichia coli K12 W 3110 was used as a sample bacterium. Compounds obtained in Examples 1 to 9 and benzalkonium chloride prepared in Comparative Example 1 were used as test samples.
The compounds obtained in Examples 10 to 19 and benzalkonium chloride were determined for MIC value against Escherichia coli K12 W 3110 in the same manner as in Test Example 3.

[9] = tested on: Escherichia coli K12 W 3110; assay: MIC by agar plate dilution method; assay type: cell-based; details: E. coli, 37° C. 24 hours
Procedure: (§4) MIC value was determined by an agar plate dilution method according to the Law of Japanese Society of Chemotherapy. In some detail, a bacteria solution in stationary state which had been adjusted with a nutrient broth such that the concentration of bacterial suspension reached 10^6 cell/ml was added to agar culture media containing chemical solutions having concentrations which vary in two stages where it was then allowed to stand at a temperature of 37° C. for 24 hours for culture. The bacteria solution was then examined to see if the proliferation of bacteria occurred. Thus, MIC was determined.
(§5) The following three kinds of bacteria were used as sample bacteria:
Escherichia coliK12 W 3110 (E. coli);

[10] = tested on: Staphylococcus aureus IFO 12732; assay: MIC by agar plate dilution method; assay type: cell-based; details: S. aureus, 37° C. 24 hours
Procedure: as §4, §5
Staphylococcus aureus IFO 12732 (S. aureus)

[11] = tested on: Candida albicans ATCC10231; assay: Minimum development inhibiting concentration (MIC) against fungi; assay type: cell-based; details: C. albicans; spore solution, 27° C. 1 week
Procedure: (§6) A sample fungus which had been pre-cultured was diluted with a wetting agent-containing sterilized water according to an ordinary broth dilution method to prepare a spore solution. 1 ml of the spore solution was then mixed with 1 ml of each of chemical solutions having concentrations which vary stepwise. The mixture was then cultured at a temperature of 27° C. in an incubator for 1 week. The culture was then examined for turbidity to see if the proliferation of fungus occurred. The minimum concentration at which no turbidity occurs was defined to be MIC.
(§7) Aspergillus niger IFO 6431 (A. niger) and Candida albicans ATCC10231 (C. albicans) were used as sample microorganisms.

[12] = tested on: Aspergillus niger IFO 6431; assay: as above; assay type: cell-based; details: A. niger; spore solution, 27° C. 1 week
Procedure: as §6, §7

[13] = tested on: Pseudomonas aeruginosa ATCC27583; assay: MIC by agar plate dilution method; assay type: cell-based; details: P. aeruginosa, 37° C. 24 hours
Procedure: as §4, §5
Pseudomonas aeruginosa ATCC27583 (P. auruginosa); and […]

rat = assay: Oral toxicity test on rat (LD50); assay type: in vivo
Procedure: The quaternary ammonium salt of the invention is a compound having an extremely high safety, i.e., LD50 (rat) of not smaller than 2,000 mg/kg in oral toxicity test on rat.
The sample 4BAMP-6C thus obtained was then determined for oral toxicity (LD50: rat). The results were greater than 2,000 mg/kg.

`CCCCCC[N+](C)(CCCCCC)Cc1c(C)cc(C)c(C[N+](C)(CCCCCC)CCCCCC)c1C.[Cl-].[Cl-]` [BAMT-6, 2,4-bis(N,N-dihexyl-N-methylammoniomethyl)-1,3,5-trimethylbenzene dichloride] was tested, and the MBC ([1]; ATCC6633, contact 30° C. 30 minutes, read-out: MBC) was < 2 µg/mL, the MBC (Proteus rettgeri NIT 96; Providencia rettgeri, NIT96, contact 30° C. 30 minutes, read-out: MBC) was < 2 µg/mL and the MBC ([2]; K12W3110, contact 30° C. 30 minutes, read-out: MBC) was 4 µg/mL. For the same molecule, the MBC ([3]; IFO12732, contact 30° C. 30 minutes, read-out: MBC) was < 2 µg/mL, the MBC ([4]; IFO3134, contact 30° C. 30 minutes, read-out: MBC) was < 2 µg/mL and the MBC ([5]; ATCC27583, contact 30° C. 30 minutes, read-out: MBC) was 4 µg/mL. For the same molecule, the MBC (Bacillus cereus IFO 3001; IFO3001, contact 30° C. 30 minutes, read-out: MBC) was < 2 µg/mL, the MBC ([6]; K12OUT8401, contact 30° C. 30 minutes, read-out: MBC) was < 2 µg/mL and the MBC ([7]; ATCC13883, contact 30° C. 30 minutes, read-out: MBC) was < 2 µg/mL. The “Minimum hemolytic activity concentration Erythrocyte” value (Erythrocyte) was 400 ppm and the MIC ([8]; Escherichia coli, K12W3110, 37° C. 24 hours) was 1 µg/mL.

In the case of “1,4-bis(N-octyl-N-hexyl-N-methylammoniomethyl)phenylene dibromide [4BAMP-6, 8B]”, the MIC [9] is reported as 8 ppm, the MIC [10] is reported as <2 ppm and the MIC [11] is reported as <2 ppm. For the same molecule, the MIC [12] was 8 ppm and the MIC [13] was <2 ppm.

“1,4-bis(N-octyl-N-hexyl-N-methylammoniomethyl)-2,3,5,6-tetramethylphenylene dichloride [BAMD-6, 8]” was tested, and the MBC ([1]; contact 30° C. 30 minutes) was <2 ppm, the MBC (Proteus rettgeri NIT 96; contact 30° C. 30 minutes) was <2 ppm and the MBC ([2]; contact 30° C. 30 minutes) was <2 ppm. For the same molecule, the MBC ([3]; contact 30° C. 30 minutes) was <2 ppm, the MBC ([4]; contact 30° C. 30 minutes) was <2 ppm and the MBC ([5]; contact 30° C. 30 minutes) was <2 ppm. For the same molecule, the MBC (Bacillus cereus IFO 3001; contact 30° C. 30 minutes) was <2 ppm, the MBC ([6]; contact 30° C. 30 minutes) was <2 ppm and the MBC ([7]; contact 30° C. 30 minutes) was <2 ppm. For the same molecule, the “MIC Escherichia coli K12 W 3110” value [8] was 1 ppm.

“1,4-bis(N,N-dipentyl-N-methylammoniomethyl)phenylene dichloride [Example 4BAMP-5C]” was tested, and the MIC [9] was 16 ppm, the MIC [10] was <2 ppm and the MIC [11] was 8 ppm. For the same molecule, the MIC [12] was 16 ppm, the “Minimum hemolytic activity concentration Erythrocyte” value (Erythrocyte) was 1,600 ppm and the MIC [13] was 4 ppm.

“1,4-bis(N,N-dihexyl-N-methylammoniomethyl)-2,3,5,6-tetramethylphenylene dichloride [BAMD-6]” was tested, and the MBC ([1]; contact 30° C. 30 minutes) was <2 ppm, the MBC (Proteus rettgeri NIT 96; contact 30° C. 30 minutes) was <2 ppm and the MBC ([2]; contact 30° C. 30 minutes) was 4 ppm. The MBC ([3]; contact 30° C. 30 minutes) was <2 ppm, the MBC ([4]; contact 30° C. 30 minutes) was <2 ppm and the MBC ([5]; contact 30° C. 30 minutes) was 4 ppm. For the same molecule, the MBC (Bacillus cereus IFO 3001; contact 30° C. 30 minutes) was <2 ppm, the MBC ([6]; contact 30° C. 30 minutes) was <2 ppm and the MBC ([7]; contact 30° C. 30 minutes) was <2 ppm. The “oral toxicity LD50” value (rat) was “greater than 2,000 mg/kg”, the “Minimum hemolytic activity concentration Erythrocyte” value (Erythrocyte) was 400 ppm and the “MIC Escherichia coli K12 W 3110” value [8] was 1 ppm.

For “1,4-bis(N,N-dihexyl-N-methylammoniomethyl)phenylene di-p-toluenesulfonate [Example 4BAMP-6S]”, the MBC ([1]; contact 30° C. 30 minutes) was <2 ppm, the MBC (Proteus rettgeri NIT 96; contact 30° C. 30 minutes) was <2 ppm and the MBC ([2]; contact 30° C. 30 minutes) was 8 ppm. The MBC ([3]; contact 30° C. 30 minutes) was <2 ppm, the MBC ([4]; contact 30° C. 30 minutes) was <2 ppm and the MBC ([5]; contact 30° C. 30 minutes) was 8 ppm. For the same molecule, the MBC (Bacillus cereus IFO 3001; contact 30° C. 30 minutes) was 4 ppm, the MBC ([6]; contact 30° C. 30 minutes) was 4 ppm and the MBC ([7]; contact 30° C. 30 minutes) was <2 ppm. For the same molecule, the “oral toxicity LD50” value (rat) was “greater than 2,000 mg/kg” and the “MIC Escherichia coli K12 W 3110” value [8] was 2 ppm.
